Experimental data as given in ChEMBL document CHEMBL1201862, “PubChem BioAssay data set” (2004).
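1) Cells in 96-well plates. 2) Compound, 48 h, 5 concentrations. 3) Linear interpolation between surrounding doses. 4) Unreached endpoint = highest concentration. The concentration for 50% growth inhibition is given as GI50.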 Active and inactive are the calls of the source. No stated cut-off is given here; in the data, active = GI50 up to about 1.1 µM and inactive = higher.

Experiments:
Assay in all cases: NCI anticancer screen, dose series, 48 h
SK-MEL-28 = test system: SK-MEL-28
SF-295 = test system: SF-295
SW-620 = test system: SW-620
OVCAR-5 = test system: OVCAR-5
LXFL 529 = test system: LXFL 529
HT-29 = test system: HT-29
IGROV-1 = test system: IGROV-1
786-0 = test system: 786-0
TK-10 = test system: TK-10
SR = test system: SR
DMS-273 = test system: DMS-273
CAKI-1 = test system: CAKI-1
RPMI-8226 = test system: RPMI-8226
SF-539 = test system: SF-539
SNB-75 = test system: SNB-75
NCI-H522 = test system: NCI-H522
KM-20L2 = test system: KM-20L2
DLD-1 = test system: DLD-1
COLO 205 = test system: COLO 205
HOP-18 = test system: HOP-18
SK-MEL-5 = test system: SK-MEL-5
CCRF-CEM = test system: CCRF-CEM
NCI-H23 = test system: NCI-H23
HCC 2998 = test system: HCC 2998
SF-268 = test system: SF-268
M19-MEL = test system: M19-MEL
MOLT-4 = test system: MOLT-4
KM12 = test system: KM12
NCI-H226 = test system: NCI-H226
M14 = test system: M14
LOX IMVI = test system: LOX IMVI
UACC-257 = test system: UACC-257
SK-OV-3 = test system: SK-OV-3
HCT-15 = test system: HCT-15
HOP-92 = test system: HOP-92
DMS-114 = test system: DMS-114
SNB-78 = test system: SNB-78
XF498 = test system: XF498
SK-MEL-2 = test system: SK-MEL-2
EKVX = test system: EKVX
OVCAR-3 = test system: OVCAR-3
SNB-19 = test system: SNB-19
OVCAR-4 = test system: OVCAR-4
RXF 631 = test system: RXF 631
ACHN = test system: ACHN
U-251 = test system: U-251
UACC-62 = test system: UACC-62
HCT-116 = test system: HCT-116
UO-31 = test system: UO-31
RXF 393 = test system: RXF 393
K562 = test system: K562
A549 = test system: A549
NCI-H460 = test system: NCI-H460
HOP-62 = test system: HOP-62
OVCAR-8 = test system: OVCAR-8
HL-60 = test system: HL-60
SN12C = test system: SN12C
Malme-3M = test system: Malme-3M
A498 = test system: A498

Q: Which GI50 (SK-MEL-28) does the source give for `C/C=C(/CCC1NCCC2c3ccccc3NC12)[Si](C)(C)C` (centres undefined) here?
A: 5.2 µM (inactive)

Q: And the GI50 (SF-295)?
A: 15.6 µM (inactive)

Q: What about the GI50 (SW-620) of the same compound?
A: 3.02 µM (inactive)

Q: And the GI50 (OVCAR-5)?
A: 7.28 µM (inactive)

Q: And the GI50 (LXFL 529)?
A: 3.65 µM (inactive)

Q: And the GI50 (HT-29)?
A: 2.83 µM (inactive)

Q: What about the GI50 (IGROV-1) of the same compound?
A: 12.8 µM (inactive)

Q: What about the GI50 (786-0) of the same compound?
A: 11.3 µM (inactive)

Q: And the GI50 (TK-10)?
A: 15 µM (inactive)

Q: And the GI50 (SR)?
A: 2.9 µM (inactive)

Q: What about the GI50 (DMS-273) of the same compound?
A: 8.55 µM (inactive)

Q: What about the GI50 (CAKI-1) of the same compound?
A: 10.8 µM (inactive)

Q: And the GI50 (RPMI-8226)?
A: 2.84 µM (inactive)

Q: What about the GI50 (SF-539) of the same compound?
A: 15.8 µM (inactive)

Q: And the GI50 (SNB-75)?
A: 9.73 µM (inactive)

Q: What about the GI50 (NCI-H522) of the same compound?
A: 16 µM (inactive)

Q: What about the GI50 (KM-20L2) of the same compound?
A: 4.62 µM (inactive)

Q: And the GI50 (DLD-1)?
A: 5.16 µM (inactive)

Q: And the GI50 (COLO 205)?
A: 1.69 µM (inactive)

Q: And the GI50 (HOP-18)?
A: 13.7 µM (inactive)

Q: And the GI50 (SK-MEL-5)?
A: 12.8 µM (inactive)

Q: And the GI50 (CCRF-CEM)?
A: 3.6 µM (inactive)

Q: And the GI50 (NCI-H23)?
A: 13.8 µM (inactive)

Q: What about the GI50 (HCC 2998) of the same compound?
A: 2.02 µM (inactive)

Q: What about the GI50 (SF-268) of the same compound?
A: 9.31 µM (inactive)

Q: What about the GI50 (M19-MEL) of the same compound?
A: 12 µM (inactive)

Q: What about the GI50 (MOLT-4) of the same compound?
A: 3.17 µM (inactive)

Q: And the GI50 (KM12)?
A: 4.52 µM (inactive)

Q: What about the GI50 (NCI-H226) of the same compound?
A: 13.3 µM (inactive)

Q: And the GI50 (M14)?
A: 3.66 µM (inactive)

Q: And the GI50 (LOX IMVI)?
A: 7.31 µM (inactive)

Q: What about the GI50 (UACC-257) of the same compound?
A: 4.38 µM (inactive)

Q: And the GI50 (SK-OV-3)?
A: 15.7 µM (inactive)

Q: What about the GI50 (HCT-15) of the same compound?
A: 12.4 µM

Q: What about the GI50 (HOP-92) of the same compound?
A: 5.58 µM (inactive)

Q: And the GI50 (DMS-114)?
A: 4.53 µM (inactive)

Q: What about the GI50 (SNB-78) of the same compound?
A: 11.6 µM (inactive)

Q: And the GI50 (XF498)?
A: 3.15 µM (inactive)

Q: What about the GI50 (SK-MEL-2) of the same compound?
A: 13.8 µM (inactive)

Q: What about the GI50 (EKVX) of the same compound?
A: 14.4 µM (inactive)

Q: What about the GI50 (OVCAR-3) of the same compound?
A: 11.4 µM (inactive)

Q: And the GI50 (SNB-19)?
A: 15.5 µM (inactive)

Q: What about the GI50 (OVCAR-4) of the same compound?
A: 7.57 µM (inactive)

Q: What about the GI50 (RXF 631) of the same compound?
A: 10.4 µM (inactive)

Q: What about the GI50 (ACHN) of the same compound?
A: 14.2 µM (inactive)

Q: And the GI50 (U-251)?
A: 12.8 µM (inactive)

Q: And the GI50 (UACC-62)?
A: 13.5 µM (inactive)

Q: What about the GI50 (HCT-116) of the same compound?
A: 3.52 µM (inactive)

Q: What about the GI50 (UO-31) of the same compound?
A: 7.08 µM (inactive)

Q: And the GI50 (RXF 393)?
A: 6.53 µM (inactive)

Q: And the GI50 (K562)?
A: 2.75 µM (inactive)

Q: And the GI50 (A549)?
A: 14.6 µM (inactive)

Q: And the GI50 (NCI-H460)?
A: 3.3 µM (inactive)

Q: What about the GI50 (HOP-62) of the same compound?
A: 15.2 µM (inactive)

Q: What about the GI50 (OVCAR-8) of the same compound?
A: 7.98 µM (inactive)

Q: And the GI50 (HL-60)?
A: 2.12 µM (inactive)

Q: And the GI50 (SN12C)?
A: 11.7 µM (inactive)

Q: With `CC(C)=CC1CC(=O)C1(C)Sc1ccccc1` (centres undefined) as the compound, how does the GI50 (SK-MEL-28) read?
A: > 100 µM (inactive)

Q: And the GI50 (SF-295)?
A: > 100 µM (inactive)

Q: What about the GI50 (OVCAR-5) of the same compound?
A: > 100 µM (inactive)

Q: What about the GI50 (LXFL 529) of the same compound?
A: 42.7 µM (inactive)

Q: What about the GI50 (HT-29) of the same compound?
A: 27.4 µM (inactive)

Q: What about the GI50 (IGROV-1) of the same compound?
A: > 100 µM (inactive)

Q: And the GI50 (786-0)?
A: 50.7 µM (inactive)

Q: And the GI50 (TK-10)?
A: > 100 µM (inactive)

Q: What about the GI50 (SR) of the same compound?
A: 20 µM (inactive)

Q: What about the GI50 (CAKI-1) of the same compound?
A: 54.7 µM (inactive)

Q: What about the GI50 (RPMI-8226) of the same compound?
A: 20.6 µM (inactive)

Q: What about the GI50 (SF-539) of the same compound?
A: > 100 µM (inactive)

Q: What about the GI50 (SNB-75) of the same compound?
A: 65.2 µM (inactive)

Q: And the GI50 (NCI-H522)?
A: 24 µM (inactive)

Q: And the GI50 (KM-20L2)?
A: 36.3 µM (inactive)

Q: And the GI50 (DLD-1)?
A: 52.8 µM (inactive)

Q: And the GI50 (COLO 205)?
A: 23.1 µM (inactive)

Q: What about the GI50 (HOP-18) of the same compound?
A: > 100 µM (inactive)

Q: What about the GI50 (SK-MEL-5) of the same compound?
A: 33.3 µM (inactive)

Q: And the GI50 (CCRF-CEM)?
A: 19.1 µM (inactive)

Q: And the GI50 (NCI-H23)?
A: 56.4 µM (inactive)

Q: And the GI50 (HCC 2998)?
A: > 100 µM (inactive)

Q: What about the GI50 (SF-268) of the same compound?
A: 51.3 µM (inactive)

Q: And the GI50 (M19-MEL)?
A: 27.5 µM (inactive)

Q: What about the GI50 (MOLT-4) of the same compound?
A: 34.4 µM (inactive)

Q: What about the GI50 (KM12) of the same compound?
A: > 100 µM (inactive)

Q: What about the GI50 (NCI-H226) of the same compound?
A: 34.4 µM (inactive)

Q: And the GI50 (M14)?
A: 96.4 µM (inactive)

Q: And the GI50 (LOX IMVI)?
A: 17.3 µM (inactive)

Q: And the GI50 (UACC-257)?
A: 45.5 µM (inactive)

Q: What about the GI50 (SK-OV-3) of the same compound?
A: > 100 µM (inactive)

Q: And the GI50 (HCT-15)?
A: 17.3 µM

Q: And the GI50 (HOP-92)?
A: 29.9 µM (inactive)

Q: What about the GI50 (DMS-114) of the same compound?
A: 16.6 µM (inactive)

Q: And the GI50 (SNB-78)?
A: 60.1 µM (inactive)

Q: What about the GI50 (XF498) of the same compound?
A: 37.7 µM (inactive)

Q: What about the GI50 (Malme-3M) of the same compound?
A: > 100 µM (inactive)

Q: And the GI50 (SK-MEL-2)?
A: 35.2 µM (inactive)

Q: And the GI50 (EKVX)?
A: 54.2 µM (inactive)

Q: And the GI50 (OVCAR-3)?
A: 52.4 µM (inactive)

Q: What about the GI50 (SNB-19) of the same compound?
A: 67.8 µM (inactive)

Q: What about the GI50 (OVCAR-4) of the same compound?
A: > 100 µM (inactive)

Q: And the GI50 (A498)?
A: 56.2 µM (inactive)

Q: What about the GI50 (RXF 631) of the same compound?
A: 28 µM (inactive)

Q: What about the GI50 (ACHN) of the same compound?
A: > 100 µM (inactive)

Q: What about the GI50 (U-251) of the same compound?
A: 67 µM (inactive)

Q: And the GI50 (UACC-62)?
A: > 100 µM (inactive)

Q: What about the GI50 (HCT-116) of the same compound?
A: 29.6 µM (inactive)

Q: What about the GI50 (UO-31) of the same compound?
A: 50.2 µM (inactive)

Q: And the GI50 (RXF 393)?
A: 26.2 µM (inactive)

Q: What about the GI50 (K562) of the same compound?
A: 21.9 µM (inactive)

Q: And the GI50 (A549)?
A: 48.2 µM (inactive)

Q: What about the GI50 (NCI-H460) of the same compound?
A: 25 µM (inactive)

Q: What about the GI50 (HOP-62) of the same compound?
A: > 100 µM (inactive)

Q: And the GI50 (OVCAR-8)?
A: > 100 µM (inactive)

Q: And the GI50 (HL-60)?
A: 22.8 µM (inactive)

Q: And the GI50 (SN12C)?
A: 71.8 µM (inactive)
